# Assay results: patent US20250002452A1, “BICYCLOPENTANE DERIVATIVES” (ICAGEN, LLC, priority 2022, published 2025)
# Molecular target: human Kv7.2 (Homo sapiens (Human), UniProt O43526)
# Experiment: SyncroPatch 384 electrophysiology, activation of Kv7.2 in CHO cells
# Type: cell-based
# Settings: Kv7.2 activation max %, relative to 30 μM ML-213 max activation
# Protocol: The potency of Kv7 uotentiators was determined using the SyncroPatch 384 (Nanion) high throughput electrophysiology platform.
# CHO cells stably expressing either human Kv7.2, Kv7.4 or Kv7.5/7.3 under a constitutive CMV promoter were used for these studies. Cells were maintained in F12 Hams+1 mM L-glutamine (Hyclone) supplemented with 10% FBS (Sigma), 0.3× NEAA (Non-essential Gamino-acids) and 400ug/ml G418 at 37° C. in 5% CO2. Cells were cultured in T-225 flasks (Nunc) for 2-3 days to reach 85-95% confluence prior to electrophysiological recording.
# Earle's balanced salt solution (in mM): 135 NaCl, 5.4 KCl, 5 Glucose, 2 CaCl2), 1 MgCl2, 5 HEPES, pH 7.4. Seal enhancer solution (in mM): 90 NaCl, 3 KCl, 35 CaCl2), 10 MgCl2, 10 HEPES, pH 7.4. Extracellular recording solution (in mM): 71 NaCl, 70 NMDG, 13 KCl, 5 Glucose, 2 CaCl2), 1 MgCl2, 10 HEPES, pH 7.4. Intracellular recording solution (in mM): 130 KF, 20 KCl, 4 EGTA, 10 HEPES, 2 EDTA, 0.01 Escin, pH 7.2.
# Cells were harvested for electrophysiological recording upon reaching appropriate confluence. Cells were first washed in DPBS (Hyclone, Cat #SH30028.03) and then 2 ml of Accutase (MP Biomedicals #1000449) was added at 28° C. until ˜90% of cells were suspended. F12 HAM's media+1 mM L-glutamine (Hyclone, SH30026.02) was then added to the flask to dilute the accutase. Cells were then triturated until a single cell suspension was achieved, a cell count was performed, and cells were centrifuged for 2 min. at 1,000 rpm. Media was then aspirated, and cells were resuspended in Earle's balanced salt solution to a concentration of 0.75×10^6 cells/ml and allowed to recover for 25 min at 10° C.
# At the beginning of each assay, 20 μl of cell suspension was dispensed into each well of a multi-hole 384-well SyncroPatch chip by the onboard pipettor. Cell sealing was initiated, and seal enhancer solution was added to facilitate seal formation. Upon completion of sealing, cells were washed 3 times with extracellular recording solution and the assay voltage protocol was started. Human Kv7.2, Kv7.4 or Kv7.5/7.3 channels were evaluated using a voltage protocol in which cells were voltage-clamped at a holding potential of −60 mV. Potassium currents were continuously activated with a series of three voltage steps to −30 mV for 3 seconds, 40 mV for 1 second and −90 mV for 4 seconds with 12 seconds between successive voltage sweeps. Potassium currents were measured from the −90 mV repolarizing step. Baseline current was assessed for 3.5 minutes prior to the addition of 5.6 μM zinc pyrithione (1μM for Kv7.4). Kv7.2, Kv7.4 or Kv7.5/7.3 current in the presence of zinc pyrithione was acquired over five minutes to allow channels to reach steady state activity prior to addition of test agents. Channel activity was monitored for three minutes preceding the addition of 30 μM ML-213 (3 minutes) to achieve maximum activation. 150 mM TEA with 10 μM XE-991 was applied for 2 minutes to measure the leak current during maximum inhibition of Kv7.2, Kv7.4 or Kv7.5/7.3 channels.
# Example 61 Data Analysis Data were collected on the SyncroPatch platform using PatchControl software (Nanion) and processed and analyzed using DataControl Software (Nanion). Percent activation was calculated from potassium current as follows: The average current for the 5 sweeps in the presence of zinc pyrithione immediately preceding test agent addition was taken as the ‘control’ data. Likewise, the average potassium current in the presence of test agents 5 sweeps immediately preceding addition of 30 μM ML-213 was determined for ‘drug’ data. The average potassium current 5 sweeps immediately prior to addition of 150 mM TEA+10 μM XE-991 was determined for ‘max activation’ data while average currents from 5 sweeps immediately following addition of TEA was determined for ‘max inhibition’ data. […]
row,SMILES,Kv7.2 max [%]
1,"O=C(N[C@@H](CO)c1cccc(Br)c1)NC12CC(C(F)(F)F)(C1)C2 [Example 12, 1-[(1R)-1-(3-bromophenyl)-2-hydroxyethyl]-3-[3-(trifluoromethyl)-1-bicyclo[1.1.1]pentanyl]urea]",69
2,"O=C(NCc1cccc(SC(F)(F)F)c1)NC12CC(F)(C1)C2 [Example 50, 1-(3-fluoro-1-bicyclo[1.1.1]pentanyl)-3-[[3-(trifluoromethylsulfanyl)phenyl]methyl]urea]",72
3,"CC12CC(NC(=O)NCc3cccc(OC(F)(F)F)c3)(C1)C2 [Example 46, 1-(3-methyl-1-bicyclo[1.1.1]pentanyl)-3-[[3-(trifluoromethoxy)phenyl]methyl]urea]",86
4,"CC(NC(=O)NC12CC(C1)C2)c1cccc(OC(F)(F)F)c1 (stereo not shown) [Example 37, 1-(1-bicyclo[1.1.1]pentanyl)-3-[1-[3-(trifluoromethoxy)phenyl]ethyl]urea]",44
5,"O=C(NCc1cccc(OC(F)(F)F)c1F)NC12CC(C(F)(F)F)(C1)C2 [Example 57, 1-[[3-(trifluoromethoxy)-2-fluorophenyl]methyl]-3-[3-(trifluoromethyl)-1-bicyclo[1.1.1]pentanyl]urea]",45
6,"O=C(NCc1cccc(C(F)(F)F)c1)NC12CC(C(F)F)(C1)C2 [Example 22, 1-[3-(difluoromethyl)-1-bicyclo[1.1.1]pentanyl]-3-[[3-(trifluoromethyl)phenyl]methyl]urea]",74
7,"O=C(NCc1cccc(S(F)(F)(F)(F)F)c1)NC12CC(C1)C2 [Example 39, 1-(1-bicyclo[1.1.1]pentanyl)-3-[[3-(pentafluoro-λ6-sulfanyl)phenyl]methyl]urea]",75
8,"O=C(NCc1cccc(OC(F)F)c1)NC12CC(C1)C2 [Example 43, 1-(1-bicyclo[1.1.1]pentanyl)-3-[[3-(difluoromethoxy)phenyl]methyl]urea]",78
9,"CC12CC(NC(=O)NCc3cccc(C(F)(F)F)c3)(C1)C2 [Example 20, 1-(3-methyl-1-bicyclo[1.1.1]pentanyl)-3-[[3-(trifluoromethyl)phenyl]methyl]urea]",77
10,"C[C@H](NC(=O)NC12CC(F)(C1)C2)c1cccc(F)c1 [Example 24, 1-(3-fluoro-1-bicyclo[1.1.1]pentanyl)-3-[(1S)-1-(3-fluorophenyl)ethyl]urea]",51
11,"COC12CC(NC(=O)NCc3cccc(OC(F)(F)F)c3)(C1)C2 [Example 1, 1-(3-methoxy-1-bicyclo[1.1.1]pentanyl)-3-[[3-(trifluoromethoxy)phenyl]methyl]urea]",73
12,"O=C(NCc1cccc(C(F)(F)F)c1)NC12CC(C1)C2 [Example 23, 1-(1-bicyclo[1.1.1]pentanyl)-3-[[3-(trifluoromethyl)phenyl]methyl]urea]",79

# Second part, the compound after the results:
row,Kv7.2 max [%],SMILES
1,49,"O=C(NCc1cccc(F)c1)NC12CC(F)(C1)C2 [Example 19, 1-(3-fluoro-1-bicyclo[1.1.1]pentanyl)-3-[(3-fluorophenyl)methyl]urea]"
2,40,"O=C(N[C@H](CO)c1cccc(Br)c1)NC12CC(C(F)(F)F)(C1)C2 [Example 44, 1-[(1S)-1-(3-bromophenyl)-2-hydroxyethyl]-3-[3-(trifluoromethyl)-1-bicyclo[1.1.1]pentanyl]urea]"
3,54,"C#Cc1cccc(CNC(=O)NC23CC(C(F)(F)F)(C2)C3)c1 [Example 32, 1-[(3-ethynylphenyl)methyl]-3-[3-(trifluoromethyl)-1-bicyclo[1.1.1]pentanyl]urea]"
4,65,"O=C(NCc1cccc(C2COC2)c1)NC12CC(C(F)(F)F)(C1)C2 [Example 30, 1-[[3-(oxetan-3-yl)phenyl]methyl]-3-[3-(trifluoromethyl)-1-bicyclo[1.1.1]pentanyl]urea]"
5,82,"O=C(NC12CC(C1)C2)NC1(c2cccc(C(F)(F)F)c2)CC1 [Example 53, 1-(1-bicyclo[1.1.1]pentanyl)-3-[1-[3-(trifluoromethyl)phenyl]cyclopropyl]urea]"
6,58,"O=C(NCc1cccc(Br)c1)NC12CC(C1)C2 [Example 40, 1-(1-bicyclo[1.1.1]pentanyl)-3-[(3-bromophenyl)methyl]urea]"
7,110,"CC(C)(C)c1cccc(CNC(=O)NC23CC(C2)C3)c1 [Example 42, 1-(1-bicyclo[1.1.1]pentanyl)-3-[(3-tert-butylphenyl)methyl]urea]"
8,76,"O=C(NCc1cccc(OC(F)(F)F)c1)NC12CC(F)(C1)C2 [Example 6, 1-(3-fluoro-1-bicyclo[1.1.1]pentanyl)-3-[[3-(trifluoromethoxy)phenyl]methyl]urea]"
9,55,"O=C(NCc1cccc(Br)c1)NC12CC(C(F)(F)F)(C1)C2 [Example 36, 1-[(3-bromophenyl)methyl]-3-[3-(trifluoromethyl)-1-bicyclo[1.1.1]pentanyl]urea]"
10,44,"O=C(NCc1ccc(F)c(OC(F)F)c1)NC12CC(C(F)(F)F)(C1)C2 [Example 56, 1-[[3-(difluoromethoxy)-4-fluorophenyl]methyl]-3-[3-(trifluoromethyl)-1-bicyclo[1.1.1]pentanyl]urea]"
11,40,"C[C@H](NC(=O)NC12CC(F)(C1)C2)c1cccc(Br)c1 [Example 16, 1-[(1S)-1-(3-bromophenyl)ethyl]-3-(3-fluoro-1-bicyclo[1.1.1]pentanyl)urea]"
12,49,"O=C(NCc1cccc(Cl)c1)NC12CC(C1)C2 [Example 41, 1-(1-bicyclo[1.1.1]pentanyl)-3-[(3-chlorophenyl)methyl]urea]"
13,58,"O=C(NCc1ccc2c(c1)OC(F)(F)O2)NC12CC(C(F)(F)F)(C1)C2 [Example 33, 1-[(2,2-difluoro-1,3-benzodioxol-5-yl)methyl]-3-[3-(trifluoromethyl)-1-bicyclo[1.1.1]pentanyl]urea]"
14,75,"O=C(NCc1cccc(C(F)(F)F)c1)NC12CC(C(F)(F)F)(C1)C2 [Example 7, 1-[3-(trifluoromethyl)-1-bicyclo[1.1.1]pentanyl]-3-[[3-(trifluoromethyl)phenyl]methyl]urea]"
15,78,"O=C(N[C@@H](CO)c1cccc(C(F)(F)F)c1)NC12CC(C(F)(F)F)(C1)C2 [Example 48, 1-[(1R)-2-hydroxy-1-[3-(trifluoromethyl)phenyl]ethyl]-3-[3-(trifluoromethyl)-1-bicyclo[1.1.1]pentanyl]urea]"
16,71,"O=C(NCc1cccc(C=C(F)F)c1)NC12CC(F)(C1)C2 [Example 45, 1-[[3-(2,2-difluoroethenyl)phenyl]methyl]-3-(3-fluoro-1-bicyclo[1.1.1]pentanyl)urea]"
